Seven molecules from patent US12528777B2, “Quinazolinones derivatives for treatment of non-alcoholic fatty liver disease, preparation and use thereof” (Council of Scientific and Industrial Research, priority 2020, dated 2026) can be followed below.

The target in one series is COP1 (Homo sapiens, UniProt Q8NHY2). Briefly: In vitro ubiquitination of purified ATGL by COP1 with UbcH6. In kind it is biochemical. Also noted: host or cells: HEK293A. The settings on record: 5 μM compound, COP1 overexpressing HEK293A lysate. An excerpt:
Purification of ATGL protein and obtaining COP1 overexpressing cell lysate: Myc-ATGL plasmid and Myc-DDK-COP1 plasmid ([…] each) were transfected separately in cultured HEK293A cells with the help of Lipofectamine2000 (Invitrogen). Cells were harvested in Lysis Buffer and protein solution was extracted as described previously. The Lysis Buffer used to harvest COP1 overexpressing cells had 0.1% SDS supplemented in it. The concentration of protein was estimated using Bradford assay. For source of E3 ligase, the total cell lysate from COP1 overexpressing HEK293A cells were used.
For purification of Myc-ATGL: 1 ml of Ni^2+-NTA resin (Roche) was taken in a 15 ml centrifuge tube and centrifuged at 2000 RPM for 5 minutes. The upper ethanol layer was discarded and the pellet was washed in 1×PBS twice to remove any remaining traces of ethanol. The pellet was finally washed once with Lysis Buffer for equilibration. […] The tube was incubated overnight at 4° C. in a rotary shaker.
The next day, the solution was centrifuged at 2000 RPM for 10 minutes and the supernatant collected. Lysis Buffer (containing protease inhibitor cocktail twice the previous concentration) was used for washing the beads twice to remove non-specific and unattached reactants in a stringent condition. The beads were finally washed once with 1×PBS containing the same amount of protease inhibitor for equilibration. 300 μl of 500 mM Imidazole (Sigma Aldrich) solution in 1×PBS was added to the resin for elution of ATGL and centrifuged at 2000 RPM for 30 minutes and the eluted protein was collected. To the separated resin, 300 μl of 1M Imidazole solution was added and centrifuged at 2000 RPM for 30 minutes and the second elute was collected. […] of eluted protein from each elution was boiled with 5 μl of Laemmli's buffer at 95° C. for 10 minutes and run in 10% SDS-PAGE gel. The supernatant collected before elution of ATGL and the proteins still attached to the Ni^2+-NTA resin were also run in the SDS-PAGE. The resolved proteins were subsequently transferred on PVDF membranes and probed with anti-myc primary antibody to check the presence of purified ATGL in the elute. Also to check the yield of the purified protein, 40 μl of the elute was run in 10% SDS page and stained with Coomassie Brilliant Blue solution followed by destaining with methanol, glacial acetic acid and water in a 50:40:10 ratio.
For identifying the E2 ubiquitin-conjugating enzyme responsible for ATGL ubiquitination by COP1, an in vitro ubiquitinylation kit (Enzo Life Sciences) was used. The assay was reconstituted as per manufacturer's protocol with the panel of E2 conjugating enzymes provided and other required components at the mentioned concentrations. The reaction was carried out for 6 hours following which it was quenched as per directions with the provided 2× non-reducing gel buffer and then analysed by western blotting.
Having identified the E2 ubiquitin conjugating enzyme as UbcH6, ubiquitination assay was set up in vitro as described previously with 5 μM of the compound 9, 107, 171, 179 and 73 followed by quenching and analysis by western blotting.
Ubiquitination of a target protein is carried out in a three step process involving three different enzymes: E1 ubiquitin activating enzyme, E2 ubiquitin conjugating enzyme and E3 ubiquitin ligase. In humans, there is only one E1 ubiquitin activating enzyme and multiple E2 and E3 enzymes. […]

The subject of another series is ATGL. Description: ATGL level in mouse adipose tissue explants (western blot). The settings on record: 24 hours, 100 nM, 500 nM and 1 μM. It counts as cell-based. Here is the method: To further strengthen the efficiency of the compounds 9 and 107, primary hepatocytes were isolated from mice and these compounds were treated in a dose dependent manner for 24 hours. Primary hepatocytes and adipose tissue explants were isolated from mice and subjected to compound treatment for 24 hours at the doses of 100 nM, 500 nM and 1 μM. Post cell harvesting, western blot was carried out with the lysate to check the ATGL level. ATGL and COP1 antibodies were used. Actin served the purpose of a loading control.
2. Adipocytes—2-4 months old chow-fed black male mouse (C57bl/6) was sacrificed using chloroform (SRL) and was cleaned with 70% ethanol. Under aseptic conditions, the ventral side of the mouse was cut open, and gonadal (epididymal) white adipose tissue were excised using scissors and suspended in 1×PBS supplemented with 0.1% BSA in a 10 cm culture plate. The attached blood vessels were removed and the adipose tissue was minced as much as possible. The suspension was centrifuged at 50 g for 2 minutes at 4° C. After centrifugation, the adipose tissue pieces suspended at the uppermost layer of the supernatant as emulsion were carefully extracted and plated in DMEM in 35 mm culture dishes. The explant tissue thus obtained was treated with different concentrations of compounds after 6-7 hours.

Series [1] is described as follows: Metabolic stability using Human Liver Microsomes. In kind it is in vitro ADME. The settings on record: for % QH (Well stirred model): NADPH, 0-60 min. Here is the method: 1 mM stock solution of test compound was prepared in DMSO and diluted with Acetonitrile:Water (1:1) to get a 100 μM working concentration. 100 mL of Milli Q water was added to K2HPO4 (1.398 g) and KH2PO4 (0.27 g) to get final pH 7.4 solution of potassium phosphate buffer. […] The above mixture was pre incubated for 15 minutes at 37° C. After pre incubation, 32.5 μL of the mixture was added to 17.5 μL of buffer, this was incubated for 60 minutes at 37° C. [60 min Without Cofactor (NADPH)]. 16.25 μL of the pre incubated mixture and 8.75 μL of cofactor was added to 150 μL of acetonitrile containing internal standard [0 min Sample]. 62 μL of cofactor was added to remaining pre incubation mixture [Incubation mixture]. 25 μL of incubation mixture at 0, 5, 15, 30, 60 min and 60 min without cofactor were precipitated with 150 μL of acetonitrile containing internal standard, vortexed and centrifuged at 4000 rpm at 4° C. for 20 minutes. 120 μL of supernatant was diluted with 120 μL of water and analyzed by LC-MS/MS [sample preparation].
In general terms: Liver microsomes are a subcellular fraction often used to study metabolism.

“Also recorded” adds a separate entry of the source.

COP1, sequence (Q8NHY2 whole entry): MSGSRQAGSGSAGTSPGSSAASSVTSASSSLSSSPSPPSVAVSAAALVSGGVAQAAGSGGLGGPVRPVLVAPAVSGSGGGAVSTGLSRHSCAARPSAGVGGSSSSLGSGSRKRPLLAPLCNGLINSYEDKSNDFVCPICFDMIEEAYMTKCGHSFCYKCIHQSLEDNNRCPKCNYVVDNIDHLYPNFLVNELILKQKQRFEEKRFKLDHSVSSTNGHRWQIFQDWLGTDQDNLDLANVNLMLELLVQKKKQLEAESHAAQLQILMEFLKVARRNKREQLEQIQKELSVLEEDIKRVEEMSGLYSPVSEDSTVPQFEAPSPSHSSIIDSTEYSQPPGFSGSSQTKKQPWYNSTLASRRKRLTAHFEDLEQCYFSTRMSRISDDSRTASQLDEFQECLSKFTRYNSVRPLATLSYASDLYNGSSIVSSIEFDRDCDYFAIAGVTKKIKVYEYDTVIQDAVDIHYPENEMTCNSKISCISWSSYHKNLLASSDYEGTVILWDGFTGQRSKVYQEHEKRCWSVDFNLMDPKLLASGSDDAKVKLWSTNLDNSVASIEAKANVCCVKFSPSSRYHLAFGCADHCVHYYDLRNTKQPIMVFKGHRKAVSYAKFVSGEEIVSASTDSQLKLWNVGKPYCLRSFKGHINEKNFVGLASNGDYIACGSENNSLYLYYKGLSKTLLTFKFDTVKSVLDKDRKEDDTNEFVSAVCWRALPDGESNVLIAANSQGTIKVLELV

For `COCCn1cnc2ccc(NC(=O)Nc3cccc(C(C)=O)c3)cc2c1=O` [Compound 9, 1-(3-acetylphenyl)-3-(3-(2-methoxyethyl)-4-oxo-3,4-dihydroquinazolin-6-yl)urea], the “ATGL ubiquitination by COP1 in vitro” value at COP1 is on record as “effective in reducing the ubiquitination of ATGL by COP1; also recorded: significant efficacy in curbing ATGL ubiquitination by COP1”. For the same molecule, the “ATGL level in mouse adipose explants” value with ATGL is “no such changes were observed; also recorded: this effect was absent; also recorded: did not show any significant changes in ATGL protein”. In series [1], the “Clearance class from % QH” value is recorded as “lower clearance” and the “% QH (Well stirred model)” value is 21.26%.
As for `COCCn1c(C)nc2ccc(NC(=O)Nc3cccc(C(C)=O)c3)cc2c1=O` [Compound 107, 1-(3-acetylphenyl)-3-(3-(2-methoxyethyl)-2-methyl-4-oxo-3,4-dihydroquinazolin-6-yl)urea], the “ATGL ubiquitination by COP1 in vitro” value at COP1 is reported as “effective in reducing the ubiquitination of ATGL by COP1; also recorded: significant efficacy in curbing ATGL ubiquitination by COP1”. Besides, in the series with ATGL, the “ATGL level in mouse adipose explants” value is on record as “no such changes were observed; also recorded: this effect was absent; also recorded: did not show any significant changes in ATGL protein”.
Take `CC(=O)c1cccc(NC(=O)Nc2ccc3ncn(CCCN4CCOCC4)c(=O)c3c2)c1` [Compound 139, 1-(3-acetylphenyl)-3-(3-(3-morpholinopropyl)-4-oxo-3,4-dihydroquinazolin-6-yl)urea]: in series [1], the “Clearance class from % QH” value is given as “medium clearance” and the “% QH (Well stirred model)” value was 35.3%.
Turning to `COCC(C)n1cnc2ccc(NC(=O)Nc3cccc(C(C)=O)c3)cc2c1=O` (stereo not drawn) [Compound 179, 1-(3-acetylphenyl)-3-(3-(1-methoxypropan-2-yl)-4-oxo-3,4-dihydroquinazolin-6-yl)urea], the “ATGL ubiquitination by COP1 in vitro” value at COP1 is “effective in reducing the ubiquitination of ATGL by COP1; also recorded: significant efficacy in curbing ATGL ubiquitination by COP1”.
Take `COCCn1c(-c2cccnc2)nc2ccc(NC(=O)Nc3cccc(C(C)=O)c3)cc2c1=O` [Compound 215, 1-(3-acetylphenyl)-3-(3-(2-methoxyethyl)-4-oxo-2-(pyridin-3-yl)-3,4-dihydroquinazolin-6-yl)urea]: in series [1], the “Clearance class from % QH” value is “lower clearance” and the “% QH (Well stirred model)” value worked out at 15.5%.
With `COCCn1c(-c2ccncc2)nc2ccc(NC(=O)Nc3cccc(C(C)=O)c3)cc2c1=O` [Compound 219, 1-(3-acetylphenyl)-3-(3-(2-methoxyethyl)-4-oxo-2-(pyridin-4-yl)-3,4-dihydroquinazolin-6-yl)urea], in series [1], the “Clearance class from % QH” value is on record as “lower clearance” and the “% QH (Well stirred model)” value amounted to 24.5%.
On to `COCCn1c(CN2CCCCC2)nc2ccc(NC(=O)Nc3cccc(C(C)=O)c3)cc2c1=O` [Compound 238, 1-(3-acetylphenyl)-3-(3-(2-methoxyethyl)-4-oxo-2-(piperidin-1-ylmethyl)-3,4-dihydroquinazolin-6-yl)urea], for which, in series [1], the “Clearance class from % QH” value is on record as “higher clearance” and the “% QH (Well stirred model)” value turned out to be 83.5%.
